Laboratory results as given in US10463644B2, “Uses of sesquiterpene lactone compounds and their derivatives in drugs preparation” (ACCENDATECH, priority 2013, dated 2019).
Where two headings read alike, the source gives them in different places.

Legend:
cancer cells = assay: Survival rate of cancer cells after test compound is added (flow cytometry, Annexin V-FITC/PI, clinical specimen); assay type: cell-based, patient; details: Homo sapiens, 18 h, read-out: Survival rate (%) All cells (Stem cells and ordinary cells)
Method in brief: (§1)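 Survival was determined in clinical specimens after an 18 h compound treatment, using Annexin V-FITC/PI apoptosis staining and flow cytometry.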

cancer stem cells = assay: Survival rate of cancer stem cells after test compound is added (flow cytometry, Annexin V-FITC/PI, clinical specimen); assay type: cell-based, patient; details: Homo sapiens, 18 h
Method in brief: as §1

[1] = test system: TNF-α secreted by synoviocyte; assay: Content of TNF-α in culture supernatant of synoviocyte of RA model rats given test compound; assay type: in vivo; details: rat RA model, dose 30 mg/kg.2d; normal control 0.38 ± 0.027, NaCl 0.74 ± 0.098
Method in brief: (§2)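 Read-out: TNF-α, PGE2 and IL-1β levels in supernatant from cultured synoviocytes. Cells came from RA model rats treated with compound at 30 mg/kg.2d, and from NaCl-treated and normal control rats.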

[2] = test system: PGE2 secreted by synoviocyte; assay: Content of PGE2 in culture supernatant of synoviocyte of RA model rats given test compound; assay type: in vivo; details: rat RA model, dose 30 mg/kg.2d; normal control 8.34 ± 1.29, NaCl 32.44 ± 10.32
Method in brief: as §2

[3] = test system: IL-1β secreted by synoviocyte; assay: Content of IL-1β in culture supernatant of synoviocyte of RA model rats given test compound; assay type: in vivo; details: rat RA model, dose 30 mg/kg.2d; normal control 0.16 ± 0.034, NaCl 0.49 ± 0.136
Method in brief: as §2

[4] = Head and neck squamous cell carcinomas

**Q.** `C=C1C(=O)O[C@H]2[C@H]1CC[C@]1(C)O[C@@]13CC[C@@](C)(O)[C@H]23` [Compound 24] was tested. Which viability at 10 µM (cancer cells; AML) did it give?
**A.** 59%

**Q.** What about the viability at 20 µM (cancer cells; AML) of the same compound?
**A.** 48%

**Q.** What about the viability at 10 µM (cancer cells; Brain glioma) of the same compound?
**A.** 65%

**Q.** And the viability at 20 µM (cancer cells; Brain glioma)?
**A.** 53%

**Q.** And the viability at 10 µM (cancer cells; Brain tumor)?
**A.** 74%

**Q.** What about the viability at 20 µM (cancer cells; Brain tumor) of the same compound?
**A.** 69%

**Q.** And the viability at 10 µM (cancer cells; Breast cancer)?
**A.** 77%

**Q.** And the viability at 20 µM (cancer cells; Breast cancer)?
**A.** 58%

**Q.** And the viability at 10 µM (cancer cells; CLL)?
**A.** 67%

**Q.** What about the viability at 20 µM (cancer cells; CLL) of the same compound?
**A.** 48%

**Q.** And the viability at 10 µM (cancer cells; CML)?
**A.** 69%

**Q.** What about the viability at 20 µM (cancer cells; CML) of the same compound?
**A.** 51%

**Q.** And the viability at 10 µM (cancer cells; Children hepatoblastoma)?
**A.** 75%

**Q.** What about the viability at 20 µM (cancer cells; Children hepatoblastoma) of the same compound?
**A.** 68%

**Q.** And the viability at 10 µM (cancer cells; Colon adenocarcinoma)?
**A.** 66%

**Q.** What about the viability at 20 µM (cancer cells; Colon adenocarcinoma) of the same compound?
**A.** 57%

**Q.** And the viability at 10 µM (cancer cells; Colorectal cancer)?
**A.** 78%

**Q.** And the viability at 20 µM (cancer cells; Colorectal cancer)?
**A.** 67%

**Q.** And the viability at 10 µM (cancer cells; Gastric cancer)?
**A.** 66%

**Q.** What about the viability at 20 µM (cancer cells; Gastric cancer) of the same compound?
**A.** 48%

**Q.** What about the viability at 10 µM (cancer cells; Gastrointestinal tumor) of the same compound?
**A.** 72%

**Q.** What about the viability at 20 µM (cancer cells; Gastrointestinal tumor) of the same compound?
**A.** 62%

**Q.** What about the viability at 10 µM (cancer cells; Glioma) of the same compound?
**A.** 78%

**Q.** What about the viability at 20 µM (cancer cells; Glioma) of the same compound?
**A.** 74%

**Q.** And the viability at 10 µM (cancer cells; [4])?
**A.** 76%

**Q.** What about the viability at 20 µM (cancer cells; [4]) of the same compound?
**A.** 68%

**Q.** What about the viability at 10 µM (cancer cells; Laryngeal cancer) of the same compound?
**A.** 75%

**Q.** What about the viability at 20 µM (cancer cells; Laryngeal cancer) of the same compound?
**A.** 66%

**Q.** And the viability at 10 µM (cancer cells; Liver cancer)?
**A.** 82%

**Q.** And the viability at 20 µM (cancer cells; Liver cancer)?
**A.** 72%

**Q.** And the viability at 10 µM (cancer cells; Lung adenocarcinoma)?
**A.** 78%

**Q.** And the viability at 20 µM (cancer cells; Lung adenocarcinoma)?
**A.** 64%

**Q.** What about the viability at 10 µM (cancer cells; Lung cancer) of the same compound?
**A.** 72%

**Q.** And the viability at 20 µM (cancer cells; Lung cancer)?
**A.** 66%

**Q.** And the viability at 10 µM (cancer cells; Malignant melanoma)?
**A.** 88%

**Q.** And the viability at 20 µM (cancer cells; Malignant melanoma)?
**A.** 86%

**Q.** And the viability at 10 µM (cancer cells; Nasopharynx cancer)?
**A.** 64%

**Q.** What about the viability at 20 µM (cancer cells; Nasopharynx cancer) of the same compound?
**A.** 59%

**Q.** What about the viability at 10 µM (cancer cells; Ovarian cancer) of the same compound?
**A.** 68%

**Q.** And the viability at 20 µM (cancer cells; Ovarian cancer)?
**A.** 61%

**Q.** And the viability at 10 µM (cancer cells; Pancreatic cancer)?
**A.** 68%

**Q.** What about the viability at 20 µM (cancer cells; Pancreatic cancer) of the same compound?
**A.** 62%

**Q.** And the viability at 10 µM (cancer cells; Prostate cancer)?
**A.** 75%

**Q.** What about the viability at 20 µM (cancer cells; Prostate cancer) of the same compound?
**A.** 62%

**Q.** What about the viability at 10 µM (cancer cells; Retinoblastoma) of the same compound?
**A.** 82%

**Q.** What about the viability at 20 µM (cancer cells; Retinoblastoma) of the same compound?
**A.** 69%

**Q.** And the viability at 10 µM (cancer cells; Skin cancer)?
**A.** 62%

**Q.** What about the viability at 20 µM (cancer cells; Skin cancer) of the same compound?
**A.** 47%

**Q.** What about the viability at 10 µM (cancer stem cells; AML) of the same compound?
**A.** 48%

**Q.** And the viability at 20 µM (cancer stem cells; AML)?
**A.** 39%

**Q.** And the viability at 10 µM (cancer stem cells; Brain glioma)?
**A.** 52%

**Q.** What about the viability at 20 µM (cancer stem cells; Brain glioma) of the same compound?
**A.** 42%

**Q.** And the viability at 10 µM (cancer stem cells; Brain tumor)?
**A.** 66%

**Q.** And the viability at 20 µM (cancer stem cells; Brain tumor)?
**A.** 54%

**Q.** And the viability at 10 µM (cancer stem cells; Breast cancer)?
**A.** 54%

**Q.** And the viability at 20 µM (cancer stem cells; Breast cancer)?
**A.** 47%

**Q.** And the viability at 10 µM (cancer stem cells; CLL)?
**A.** 48%

**Q.** What about the viability at 20 µM (cancer stem cells; CLL) of the same compound?
**A.** 39%

**Q.** And the viability at 10 µM (cancer stem cells; CML)?
**A.** 51%

**Q.** And the viability at 20 µM (cancer stem cells; CML)?
**A.** 46%

**Q.** What about the viability at 10 µM (cancer stem cells; Children hepatoblastoma) of the same compound?
**A.** 67%

**Q.** And the viability at 20 µM (cancer stem cells; Children hepatoblastoma)?
**A.** 57%

**Q.** What about the viability at 10 µM (cancer stem cells; Colon adenocarcinoma) of the same compound?
**A.** 58%

**Q.** And the viability at 20 µM (cancer stem cells; Colon adenocarcinoma)?
**A.** 49%

**Q.** What about the viability at 10 µM (cancer stem cells; Colorectal cancer) of the same compound?
**A.** 66%

**Q.** And the viability at 20 µM (cancer stem cells; Colorectal cancer)?
**A.** 55%

**Q.** What about the viability at 10 µM (cancer stem cells; Gastric cancer) of the same compound?
**A.** 51%

**Q.** And the viability at 20 µM (cancer stem cells; Gastric cancer)?
**A.** 39%

**Q.** And the viability at 10 µM (cancer stem cells; Gastrointestinal tumor)?
**A.** 56%

**Q.** What about the viability at 20 µM (cancer stem cells; Gastrointestinal tumor) of the same compound?
**A.** 51%

**Q.** What about the viability at 10 µM (cancer stem cells; Glioma) of the same compound?
**A.** 69%

**Q.** And the viability at 20 µM (cancer stem cells; Glioma)?
**A.** 60%

**Q.** And the viability at 10 µM (cancer stem cells; [4])?
**A.** 64%

**Q.** And the viability at 20 µM (cancer stem cells; [4])?
**A.** 57%

**Q.** And the viability at 10 µM (cancer stem cells; Laryngeal cancer)?
**A.** 65%

**Q.** And the viability at 20 µM (cancer stem cells; Laryngeal cancer)?
**A.** 55%

**Q.** What about the viability at 10 µM (cancer stem cells; Liver cancer) of the same compound?
**A.** 74%

**Q.** What about the viability at 20 µM (cancer stem cells; Liver cancer) of the same compound?
**A.** 61%

**Q.** What about the viability at 10 µM (cancer stem cells; Lung adenocarcinoma) of the same compound?
**A.** 68%

**Q.** And the viability at 20 µM (cancer stem cells; Lung adenocarcinoma)?
**A.** 55%

**Q.** What about the viability at 10 µM (cancer stem cells; Lung cancer) of the same compound?
**A.** 61%

**Q.** And the viability at 20 µM (cancer stem cells; Lung cancer)?
**A.** 54%

**Q.** And the viability at 10 µM (cancer stem cells; Malignant melanoma)?
**A.** 81%

**Q.** What about the viability at 20 µM (cancer stem cells; Malignant melanoma) of the same compound?
**A.** 76%

**Q.** And the viability at 10 µM (cancer stem cells; Nasopharynx cancer)?
**A.** 57%

**Q.** What about the viability at 20 µM (cancer stem cells; Nasopharynx cancer) of the same compound?
**A.** 48%

**Q.** And the viability at 10 µM (cancer stem cells; Ovarian cancer)?
**A.** 57%

**Q.** And the viability at 20 µM (cancer stem cells; Ovarian cancer)?
**A.** 45%

**Q.** And the viability at 10 µM (cancer stem cells; Pancreatic cancer)?
**A.** 55%

**Q.** What about the viability at 20 µM (cancer stem cells; Pancreatic cancer) of the same compound?
**A.** 49%

**Q.** What about the viability at 10 µM (cancer stem cells; Prostate cancer) of the same compound?
**A.** 61%

**Q.** And the viability at 20 µM (cancer stem cells; Prostate cancer)?
**A.** 51%

**Q.** And the viability at 10 µM (cancer stem cells; Retinoblastoma)?
**A.** 62%

**Q.** What about the viability at 20 µM (cancer stem cells; Retinoblastoma) of the same compound?
**A.** 54%

**Q.** And the viability at 10 µM (cancer stem cells; Skin cancer)?
**A.** 46%

**Q.** What about the viability at 20 µM (cancer stem cells; Skin cancer) of the same compound?
**A.** 39%

**Q.** What about the “Content of TNF-α in culture supernatant of synoviocyte (x ± s)” value [1] of the same compound?
**A.** 0.54 ± 0.057 ng/mL

**Q.** And the “Content of PGE2 in culture supernatant of synoviocyte (x ± s)” value [2]?
**A.** 23.63 ± 1.35 ng/mL

**Q.** And the “Content of IL-1β in culture supernatant of synoviocyte (x ± s)” value [3]?
**A.** 0.37 ± 0.051 ng/mL
